# Reference: PMC9823097, “Dysregulation of PRMT5 in chronic lymphocytic leukemia promotes progression with high risk of Richter’s transformation” (Nature Communications, 2023)
# Where “and” joins values, the source holds several entries; their conditions need not be identical. Equal entries are not always repeated.
# Tests used:
# PRMT5 in Mec-1 cell line = experiment: Cas9-mediated doxycycline-inducible knockout of PRMT5, Mec-1 proliferation; format: cell-based; details: +doxy
# Text: Proteins extracted from whole-cell lysates were resolved by SDS-PAGE and transferred on nitrocellulose membrane as previously described. CpG685 oligonucleotide was obtained from the OSU Cytogenetics Core Lab. Antibodies used for immunoblots included anti-human PRMT5 (Abcam #ab109451), GAPDH (Millipore Sigma #MAB374), SDMA (Cell Signaling Technology #13222), c-Myc (Cell Signaling Technology #5605S), and β-Actin (Cell Signaling Technology #4967S). Cas9-mediated doxycycline-inducible knockout of PRMT5 utilized a targeted sgRNA (guide sequence: […], PAM: GGG).
# HG3 cells = experiment: Cell growth curves over 12 days, HG3; format: cell-based; details: for anti-proliferative potency compared to PRT382: HG3
# Description: (§1) Live cells/mL were counted on days 3, 6, 10, and 12. […] The split factor was calculated at indicated time points by dividing the counted cells/mL by 3E5. Cell growth was extrapolated over time by multiplying the subsequent cell count by the previous split factor. Cell growth is plotted as fold change relative to DMSO-treated cells.
# Mec-1 cells = experiment: Cell growth curves over 12 days, Mec-1; format: cell-based; details: for anti-proliferative potency compared to PRT382: Mec-1
# Description: as §1
# [1] = tested on: BRD4 occupancy at the PRMT5 locus; experiment: ChIP-seq of H3K27Ac and BRD4 binding at the PRMT5 locus; format: cell-based; details: vehicle, CpG, or PLX51107 treatment
# [2] = tested on: PRMT5 expression in CLL cells; experiment: PRMT5 mRNA and protein expression in CpG-stimulated CLL cells upon BRD4 inhibition; format: cell-based, human
compound,measurement,setting,value
C[C@H]1c2cccc(O)c2C(O)=C2C(=O)[C@]3(O)C(O)=C(C(N)=O)C(=O)[C@@H](N(C)C)[C@@H]3[C@@H](O)[C@@H]21 [+doxy],Rep. 1 Live cells/mL,PRMT5 in Mec-1 cell line; 1 days treated,170000 cells/mL
same,Rep. 2 Live cells/mL,PRMT5 in Mec-1 cell line; 1 days treated,158000 cells/mL
same,Rep. 1 Live cells/mL,PRMT5 in Mec-1 cell line; 2 days treated,387000 cells/mL
same,Rep. 2 Live cells/mL,PRMT5 in Mec-1 cell line; 2 days treated,352000 cells/mL
same,Rep. 1 Live cells/mL,PRMT5 in Mec-1 cell line; 3 days treated,686000 cells/mL
same,Rep. 2 Live cells/mL,PRMT5 in Mec-1 cell line; 3 days treated,721000 cells/mL
same,Rep. 1 Live cells/mL,PRMT5 in Mec-1 cell line; 4 days treated,991000 cells/mL
same,Rep. 2 Live cells/mL,PRMT5 in Mec-1 cell line; 4 days treated,944000 cells/mL
same,Rep. 1 Live cells/mL,PRMT5 in Mec-1 cell line; 5 days treated,827000 cells/mL
same,Rep. 2 Live cells/mL,PRMT5 in Mec-1 cell line; 5 days treated,862000 cells/mL
same,Rep. 1 Live cells/mL,PRMT5 in Mec-1 cell line; 6 days treated,1180000 cells/mL
same,Rep. 2 Live cells/mL,PRMT5 in Mec-1 cell line; 6 days treated,1280000 cells/mL
Nc1ncnc2c1ccn2C1OC(C(O)c2ccc(Cl)c(F)c2)C(O)C1O (stereo not shown) [PF-06855800],Rep 1 Live Cells [Fold Change],"HG3 cells; HG3, 1 nM, day 0",1 Fold Change
same,Rep 2 Live Cells [Fold Change],"HG3 cells; HG3, 1 nM, day 0",1 Fold Change
same,Rep 1 Live Cells [Fold Change],"HG3 cells; HG3, 1 nM, day 3",3.4 Fold Change
same,Rep 2 Live Cells [Fold Change],"HG3 cells; HG3, 1 nM, day 3",6.6 Fold Change
same,Rep 1 Live Cells [Fold Change],"HG3 cells; HG3, 1 nM, day 6",16.32 Fold Change
same,Rep 2 Live Cells [Fold Change],"HG3 cells; HG3, 1 nM, day 6",45.98 Fold Change
same,Rep 1 Live Cells [Fold Change],"HG3 cells; HG3, 1 nM, day 10",137.904 Fold Change
same,Rep 2 Live Cells [Fold Change],"HG3 cells; HG3, 1 nM, day 10",282.777 Fold Change
same,Rep 1 Live Cells [Fold Change],"HG3 cells; HG3, 1 nM, day 12",482.664 Fold Change
same,Rep 2 Live Cells [Fold Change],"HG3 cells; HG3, 1 nM, day 12",1404.46 Fold Change
same,Rep 1 Live Cells [Fold Change],"HG3 cells; HG3, 10 nM, day 0",1 Fold Change
same,Rep 2 Live Cells [Fold Change],"HG3 cells; HG3, 10 nM, day 0",1 Fold Change
same,Rep 1 Live Cells [Fold Change],"HG3 cells; HG3, 10 nM, day 3",3.27 Fold Change
same,Rep 2 Live Cells [Fold Change],"HG3 cells; HG3, 10 nM, day 3",4.767 Fold Change
same,Rep 1 Live Cells [Fold Change],"HG3 cells; HG3, 10 nM, day 6",11.445 Fold Change
same,Rep 2 Live Cells [Fold Change],"HG3 cells; HG3, 10 nM, day 6",11.6783 Fold Change
same,Rep 1 Live Cells [Fold Change],"HG3 cells; HG3, 10 nM, day 10",19.7426 Fold Change
same,Rep 2 Live Cells [Fold Change],"HG3 cells; HG3, 10 nM, day 10",14.8315 Fold Change
same,Rep 1 Live Cells [Fold Change],"HG3 cells; HG3, 10 nM, day 12",31.5074 Fold Change
same,Rep 2 Live Cells [Fold Change],"HG3 cells; HG3, 10 nM, day 12",21.021 Fold Change
same,Rep 1 Live Cells [Fold Change],"HG3 cells; HG3, 100 nM, day 0",1 Fold Change
same,Rep 2 Live Cells [Fold Change],"HG3 cells; HG3, 100 nM, day 0",1 Fold Change
same,Rep 1 Live Cells [Fold Change],"HG3 cells; HG3, 100 nM, day 3",3.157 Fold Change
same,Rep 2 Live Cells [Fold Change],"HG3 cells; HG3, 100 nM, day 3",5.133 Fold Change
same,Rep 1 Live Cells [Fold Change],"HG3 cells; HG3, 100 nM, day 6",5.956 Fold Change
same,Rep 2 Live Cells [Fold Change],"HG3 cells; HG3, 100 nM, day 6",6.365 Fold Change
same,Rep 1 Live Cells [Fold Change],"HG3 cells; HG3, 100 nM, day 10",4.824 Fold Change
same,Rep 2 Live Cells [Fold Change],"HG3 cells; HG3, 100 nM, day 10",6.047 Fold Change
same,Rep 1 Live Cells [Fold Change],"HG3 cells; HG3, 100 nM, day 12",3.339 Fold Change
same,Rep 2 Live Cells [Fold Change],"HG3 cells; HG3, 100 nM, day 12",4.755 Fold Change
same,Rep 1 Live Cells [Fold Change],"HG3 cells; HG3, 1 µM, day 0",1 Fold Change
same,Rep 2 Live Cells [Fold Change],"HG3 cells; HG3, 1 µM, day 0",1 Fold Change
same,Rep 1 Live Cells [Fold Change],"HG3 cells; HG3, 1 µM, day 3",3.733 Fold Change
same,Rep 2 Live Cells [Fold Change],"HG3 cells; HG3, 1 µM, day 3",5.933 Fold Change
same,Rep 1 Live Cells [Fold Change],"HG3 cells; HG3, 1 µM, day 6",6.21 Fold Change
same,Rep 2 Live Cells [Fold Change],"HG3 cells; HG3, 1 µM, day 6",5.993 Fold Change
same,Rep 1 Live Cells [Fold Change],"HG3 cells; HG3, 1 µM, day 10",3.912 Fold Change
same,Rep 2 Live Cells [Fold Change],"HG3 cells; HG3, 1 µM, day 10",5.304 Fold Change
same,Rep 1 Live Cells [Fold Change],"HG3 cells; HG3, 1 µM, day 12",2.641 Fold Change
same,Rep 2 Live Cells [Fold Change],"HG3 cells; HG3, 1 µM, day 12",3.878 Fold Change
same,anti-proliferative potency compared to PRT382,HG3 cells; high doses (1µM),similar
same,anti-proliferative potency compared to PRT382,"HG3 cells; lower doses (10nM, 100nM)",more potent
same,Rep 1 Live Cells [Fold Change],"Mec-1 cells; Mec-1, 1 nM, day 0",1 Fold Change
same,Rep 2 Live Cells [Fold Change],"Mec-1 cells; Mec-1, 1 nM, day 0",1 Fold Change
same,Rep 1 Live Cells [Fold Change],"Mec-1 cells; Mec-1, 1 nM, day 3",5.6 Fold Change
same,Rep 2 Live Cells [Fold Change],"Mec-1 cells; Mec-1, 1 nM, day 3",6.6 Fold Change
same,Rep 1 Live Cells [Fold Change],"Mec-1 cells; Mec-1, 1 nM, day 6",24.6 Fold Change
same,Rep 2 Live Cells [Fold Change],"Mec-1 cells; Mec-1, 1 nM, day 6",45.98 Fold Change
same,Rep 1 Live Cells [Fold Change],"Mec-1 cells; Mec-1, 1 nM, day 10",216 Fold Change
same,Rep 2 Live Cells [Fold Change],"Mec-1 cells; Mec-1, 1 nM, day 10",282.777 Fold Change
same,Rep 1 Live Cells [Fold Change],"Mec-1 cells; Mec-1, 1 nM, day 12",1400 Fold Change
same,Rep 2 Live Cells [Fold Change],"Mec-1 cells; Mec-1, 1 nM, day 12",1404.46 Fold Change
same,Rep 1 Live Cells [Fold Change],"Mec-1 cells; Mec-1, 10 nM, day 0",1 Fold Change
same,Rep 2 Live Cells [Fold Change],"Mec-1 cells; Mec-1, 10 nM, day 0",1 Fold Change
same,Rep 1 Live Cells [Fold Change],"Mec-1 cells; Mec-1, 10 nM, day 3",4.77 Fold Change
same,Rep 2 Live Cells [Fold Change],"Mec-1 cells; Mec-1, 10 nM, day 3",4.767 Fold Change
same,Rep 1 Live Cells [Fold Change],"Mec-1 cells; Mec-1, 10 nM, day 6",9.22 Fold Change
same,Rep 2 Live Cells [Fold Change],"Mec-1 cells; Mec-1, 10 nM, day 6",11.6783 Fold Change
same,Rep 1 Live Cells [Fold Change],"Mec-1 cells; Mec-1, 10 nM, day 10",14.1 Fold Change
same,Rep 2 Live Cells [Fold Change],"Mec-1 cells; Mec-1, 10 nM, day 10",14.8315 Fold Change
same,Rep 1 Live Cells [Fold Change],"Mec-1 cells; Mec-1, 10 nM, day 12",6.51 Fold Change
same,Rep 2 Live Cells [Fold Change],"Mec-1 cells; Mec-1, 10 nM, day 12",21.021 Fold Change
same,Rep 1 Live Cells [Fold Change],"Mec-1 cells; Mec-1, 100 nM, day 0",1 Fold Change
same,Rep 2 Live Cells [Fold Change],"Mec-1 cells; Mec-1, 100 nM, day 0",1 Fold Change
same,Rep 1 Live Cells [Fold Change],"Mec-1 cells; Mec-1, 100 nM, day 3",4.7 Fold Change
same,Rep 2 Live Cells [Fold Change],"Mec-1 cells; Mec-1, 100 nM, day 3",5.133 Fold Change
same,Rep 1 Live Cells [Fold Change],"Mec-1 cells; Mec-1, 100 nM, day 6",7 Fold Change
same,Rep 2 Live Cells [Fold Change],"Mec-1 cells; Mec-1, 100 nM, day 6",6.365 Fold Change
same,Rep 1 Live Cells [Fold Change],"Mec-1 cells; Mec-1, 100 nM, day 10",3.48 Fold Change
same,Rep 2 Live Cells [Fold Change],"Mec-1 cells; Mec-1, 100 nM, day 10",6.047 Fold Change
same,Rep 1 Live Cells [Fold Change],"Mec-1 cells; Mec-1, 100 nM, day 12",1.18 Fold Change
same,Rep 2 Live Cells [Fold Change],"Mec-1 cells; Mec-1, 100 nM, day 12",4.755 Fold Change
same,Rep 1 Live Cells [Fold Change],"Mec-1 cells; Mec-1, 1 µM, day 0",1 Fold Change
same,Rep 2 Live Cells [Fold Change],"Mec-1 cells; Mec-1, 1 µM, day 0",1 Fold Change
same,Rep 1 Live Cells [Fold Change],"Mec-1 cells; Mec-1, 1 µM, day 3",3.93 Fold Change
same,Rep 2 Live Cells [Fold Change],"Mec-1 cells; Mec-1, 1 µM, day 3",5.933 Fold Change
same,Rep 1 Live Cells [Fold Change],"Mec-1 cells; Mec-1, 1 µM, day 6",5.81 Fold Change
same,Rep 2 Live Cells [Fold Change],"Mec-1 cells; Mec-1, 1 µM, day 6",5.993 Fold Change
same,Rep 1 Live Cells [Fold Change],"Mec-1 cells; Mec-1, 1 µM, day 10",3.37 Fold Change
same,Rep 2 Live Cells [Fold Change],"Mec-1 cells; Mec-1, 1 µM, day 10",5.304 Fold Change
same,Rep 1 Live Cells [Fold Change],"Mec-1 cells; Mec-1, 1 µM, day 12",1.63 Fold Change
same,Rep 2 Live Cells [Fold Change],"Mec-1 cells; Mec-1, 1 µM, day 12",3.878 Fold Change
same,anti-proliferative potency compared to PRT382,Mec-1 cells; high doses (1µM),similar
same,anti-proliferative potency compared to PRT382,"Mec-1 cells; lower doses (10nM, 100nM)",more potent
Cc1noc(C)c1-c1cnc2c(-c3ccc(C(=O)O)cc3)cn([C@@H](C)c3ccccn3)c2c1 [PLX51107],BRD4 occupancy at the PRMT5 locus enhancer,[1],lost
same,PRMT5 protein expression,"[2]; 72h 10µM PLX51107, CLL cells stimulated with 21.7 µg/mL CpG, n=5 patients",Reduced
same,PRMT5 mRNA expression,"[2]; 72h 10µM PLX51107, CLL cells stimulated with 21.7 µg/mL CpG, n=8 patients",Reduced
same,PRMT5 Relative Expression (2-ΔCt),"[2]; individual samples, Supplemental Figure 7C",1.507 and 1.2928 and 1.349 and 0.5743 and 1.232 and 0.9553 and 1.659 and 0.935
